The target in this test is Human complement C1s enzyme (Homo sapiens (Human), UniProt P09871). Nature of the test: Human C1s enzyme assay. The test is classed as biochemical. The note with it: Human C1s enzyme assay of Example 3; read-out: IC50 (Stars). The protocol: Human complement C1s enzyme (purified from human serum, Complement Technology, Inc.) at 1.16 nM final concentration was incubated with test compound at various concentrations for 5 min at room temperature in 50 mM Tris, 1 M NaCl, pH 7.5. A synthetic substrate Z-L-Lys-SBzl and DTNB (Ellman's reagent) were added to final concentrations of 100 μM each. Absorbance at 405 nm (A405) was recorded at 30 second intervals for 30 min using a microplate spectrophotometer. IC50 values were calculated by nonlinear regression of complement C1s reaction rates as a function of test compound concentration.
Human complement C1s enzyme, sequence (P09871 438-688 limits assumed): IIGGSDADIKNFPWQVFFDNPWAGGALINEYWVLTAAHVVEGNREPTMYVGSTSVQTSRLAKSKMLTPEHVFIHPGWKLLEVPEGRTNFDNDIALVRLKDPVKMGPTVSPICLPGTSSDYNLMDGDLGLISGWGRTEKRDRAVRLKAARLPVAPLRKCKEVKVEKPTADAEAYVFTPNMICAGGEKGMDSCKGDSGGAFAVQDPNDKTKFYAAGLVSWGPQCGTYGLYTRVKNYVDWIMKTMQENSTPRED
Human complement C1s enzyme, sequence (P09871 16-437 partner limits assumed): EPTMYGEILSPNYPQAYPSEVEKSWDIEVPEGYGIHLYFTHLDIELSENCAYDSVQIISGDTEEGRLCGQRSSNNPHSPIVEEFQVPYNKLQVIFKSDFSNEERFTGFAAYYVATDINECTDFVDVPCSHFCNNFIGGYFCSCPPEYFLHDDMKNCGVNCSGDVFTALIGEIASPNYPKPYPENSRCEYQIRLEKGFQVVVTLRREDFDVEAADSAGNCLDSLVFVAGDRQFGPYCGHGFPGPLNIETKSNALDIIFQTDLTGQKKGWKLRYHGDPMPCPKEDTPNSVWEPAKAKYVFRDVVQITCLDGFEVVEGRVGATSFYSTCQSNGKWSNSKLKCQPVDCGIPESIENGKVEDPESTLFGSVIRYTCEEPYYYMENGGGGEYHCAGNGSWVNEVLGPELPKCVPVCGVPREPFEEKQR
As for `C[C@@H](NC(=O)[C@@H]1C[C@@H](OC(F)F)CN1C(=O)CNC(=O)c1ccc(Oc2ccc(F)cc2)cc1)c1cc(C(=N)N)cs1` [Compound 8, (2S,4R)—N—((R)-1-(4-carbamimidoylthiophen-2-yl)ethyl)-4-(difluoromethoxy)-1-((4-(4-fluorophenoxy)benzoyl)glycyl)pyrrolidine-2-carboxamide], the IC50 was < 0.1 µM.
Next, `C[C@@H](NC(=O)[C@@H]1C[C@@H](OC(F)F)CN1C(=O)CNC(=O)c1ccc2c(c1)-c1ccccc1C2(F)F)c1cc(C(=N)N)cs1` [Compound 9, (2S,4R)—N—((R)-1-(4-carbamimidoylthiophen-2-yl)ethyl)-1-((9,9-difluoro-9H-fluorene-3-carbonyl)glycyl)-4-(difluoromethoxy)pyrrolidine-2-carboxamide]: < 0.1 µM; `Cc1ccc(Oc2ccc(C(=O)NCC(=O)N3C[C@H](OC(F)F)C[C@H]3C(=O)NCc3cc(C(=N)N)cs3)cc2)cc1` [Compound 10, (2S,4R)—N-((4-carbamimidoylthiophen-2-yl)methyl)-4-(difluoromethoxy)-1-((4-(p-tolyloxy)benzoyl)glycyl)pyrrolidine-2-carboxamide]: < 0.1 µM; `C[C@@H](NC(=O)[C@@H]1C[C@](F)(CF)CN1C(=O)CNC(=O)c1ccc2c(c1)-c1ccccc1C2(F)F)c1cc(C(=N)N)cs1` [Compound 11, (2S,4R)—N-[(1R)-1-(4-carbamimidoylthiophen-2-yl)ethyl]-1-{2-[(9,9-difluorofluoren-3-yl)formamido]acetyl}-4-fluoro-4-(fluoromethyl) pyrrolidine-2-carboxamide]: < 0.1 µM.
Next, `C[C@@H](NC(=O)[C@@H]1C[C@](F)(CF)CN1C(=O)CNC(=O)c1ccc2c(c1)-c1ccccc1C2)c1cc(C(=N)N)cs1` [Compound 12, (2S,4R)—N-[(1R)-1-(4-carbamimidoylthiophen-2-yl)ethyl]-1-[2-(9H-fluoren-3-ylformamido)acetyl]-4-fluoro-4-(fluoromethyl)pyrrolidine-2-carboxamide]: < 0.1 µM; `C[C@@H](NC(=O)[C@@H]1C[C@](F)(CF)CN1C(=O)CNC(=O)c1ccc(Oc2ccc(F)cc2)cc1)c1cc(C(=N)N)cs1` [Compound 13]: < 0.1 µM; `Cc1ccc(Oc2ccc(C(=O)NCC(=O)N3C[C@@](F)(CF)C[C@H]3C(=O)N[C@H](C)c3cc(C(=N)N)cs3)cc2)cc1` [Compound 14, (2S,4R)—N—((R)-1-(4-carbamimidoylthiophen-2-yl)ethyl)-4-fluoro-4-(fluoromethyl)-1-((4-(p-tolyloxy)benzoyl)glycyl)pyrrolidine-2-carboxamide]: < 0.1 µM.
To `C[C@@H](NC(=O)[C@@H]1C[C@](F)(CF)CN1C(=O)CNC(=O)c1ccc(Oc2ccc(C(F)(F)F)cc2)cc1)c1cc(C(=N)N)cs1` [Compound 15, (2S,4R)—N-[(1R)-1-(4-carbamimidoylthiophen-2-yl)ethyl]-4-fluoro-4-(fluoromethyl)-1-[2-({4-[4-(trifluoromethyl)phenoxy]phenyl}formamido)acetyl]pyrrolidine-2-carboxamide] belongs < 0.1 µM; to `C[C@@H](NC(=O)[C@@H]1C[C@]2(C)C[C@@H]2N1C(=O)CNC(=O)c1ccc(Oc2ccc(F)cc2)cc1)c1cc(C(=N)N)cs1` [Compound 16, (1S,3S,5S)—N-[(1R)-1-(4-carbamimidoylthiophen-2-yl)ethyl]-2-(2-{[4-(4-fluorophenoxy)phenyl]formamido}acetyl)-5-methyl-2-azabicyclo[3.1.0]hexane-3-carboxamide], < 0.1 µM; to `COC[C@@]1(F)C[C@@H](C(=O)N[C@H](C)c2cc(C(=N)N)cs2)N(C(=O)CNC(=O)c2ccc(Oc3ccc(F)cc3)cc2)C1` [Compound 17, (2S,4R)—N—((R)-1-(4-carbamimidoylthiophen-2-yl)ethyl)-4-fluoro-1-((4-(4-fluorophenoxy)benzoyl)glycyl)-4-(methoxymethyl)pyrrolidine-2-carboxamide], < 0.1 µM.
On to `COC[C@@]1(F)C[C@@H](C(=O)N[C@H](C)c2cc(C(=N)N)cs2)N(C(=O)CNC(=O)c2ccc(Oc3ccc(C(F)(F)F)cc3)cc2)C1` [Compound 18, (2S,4R)—N—((R)-1-(4-carbamimidoylthiophen-2-yl)ethyl)-4-fluoro-4-(methoxymethyl)-1-((4-(4-(trifluoromethyl)phenoxy)benzoyl)glycyl)pyrrolidine-2-carboxamide], for which the IC50 was < 0.1 µM.
To `COC[C@@]1(F)C[C@@H](C(=O)N[C@H](C)c2cc(C(=N)N)cs2)N(C(=O)CNC(=O)c2ccc(Oc3ccc(C)cc3)cc2)C1` [Compound 19, (2S,4R)—N—((R)-1-(4-carbamimidoylthiophen-2-yl)ethyl)-4-fluoro-4-(methoxymethyl)-1-((4-(p-tolyloxy)benzoyl)glycyl)pyrrolidine-2-carboxamide] belongs < 0.1 µM; to `COC[C@@]1(F)C[C@@H](C(=O)N[C@H](C)c2cc(C(=N)N)cs2)N(C(=O)CNC(=O)c2ccc3c(c2)-c2ccccc2C3(F)F)C1` [Compound 20, (2S,4R)—N—((R)-1-(4-carbamimidoylthiophen-2-yl)ethyl)-1-((9,9-difluoro-9H-fluorene-3-carbonyl)glycyl)-4-fluoro-4-(methoxymethyl)pyrrolidine-2-carboxamide], < 0.1 µM; to `C[C@@H](NC(=O)[C@@H]1CC2(CN1C(=O)CNC(=O)c1ccc3c(c1)-c1ccccc1C3(F)F)OCCO2)c1cc(C(=N)N)cs1` [Compound 21, (S)—N—((R)-1-(4-carbamimidoylthiophen-2-yl)ethyl)-7-((9,9-difluoro-9H-fluorene-3-carbonyl)glycyl)-1,4-dioxa-7-azaspiro[4.4]nonane-8-carboxamide], < 0.1 µM.
Next, `Cc1ccc(Oc2ccc(C(=O)NCC(=O)N3CC4(C[C@H]3C(=O)N[C@H](C)c3cc(C(=N)N)cs3)OCCO4)cc2)cc1` [Compound 22, (S)—N—((R)-1-(4-carbamimidoylthiophen-2-yl)ethyl)-7-((4-(p-tolyloxy)benzoyl)glycyl)-1,4-dioxa-7-azaspiro[4.4]nonane-8-carboxamide]: < 0.1 µM; `C[C@@H](NC(=O)[C@@H]1CC2(CN1C(=O)CNC(=O)c1ccc(Oc3ccc(F)cc3)cc1)OCCO2)c1cc(C(=N)N)cs1` [Compound 23, (S)—N—((R)-1-(4-carbamimidoylthiophen-2-yl)ethyl)-7-((4-(4-fluorophenoxy)benzoyl)glycyl)-1,4-dioxa-7-azaspiro[4.4]nonane-8-carboxamide]: < 0.1 µM; `Cc1cc(C(=O)NCC(=O)N2C[C@H](OC(F)F)C[C@H]2C(=O)N[C@H](C)c2cc(C(=N)N)cs2)ccc1Oc1ccccc1` [Compound 24, (2S,4R)—N—((R)-1-(4-carbamimidoylthiophen-2-yl)ethyl)-4-(difluoromethoxy)-1-((3-methyl-4-phenoxybenzoyl)glycyl)pyrrolidine-2-carboxamide]: < 0.1 µM.
Next, `Cc1ccc(Oc2ccc(C(=O)NCC(=O)N3[C@H]4C[C@@]4(C)C[C@H]3C(=O)N[C@H](C)c3cc(C(=N)N)cs3)cc2C)cc1` [Compound 25, (1S,3S,5S)—N—((R)-1-(4-carbamimidoylthiophen-2-yl)ethyl)-5-methyl-2-((3-methyl-4-(p-tolyloxy)benzoyl)glycyl)-2-azabicyclo[3.1.]hexane-3-carboxamide]: < 0.1 µM.

For the origin of these results see patent US20250346585A1 (Alexion Pharmaceuticals, Inc., priority 2022, published 2025).
